Experimental data reported in PubChem BioAssay (NCI).
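48-hour exposure; five concentrations; linearly interpolated endpoints. GI50 is the concentration that inhibits growth by half. TGI: concentration producing complete growth inhibition.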

How the values were obtained:
Assay in all cases: growth of human tumour cells (NCI), 48 h
[1] = system: 786-0 renal
[2] = system: NCI-H460 lung
[3] = system: M14 melanoma
[4] = system: SW-620 colon
[5] = system: SK-MEL-28 melanoma
[6] = system: A549 NSCLC
[7] = system: CAKI-1 renal
[8] = system: HOP-92 NSCLC
[9] = system: HL-60(TB) leukemia

O=C(Nc1cccc(NC(=O)Nc2cc(C(F)(F)F)ccc2Cl)c1)Nc1cc(C(F)(F)F)ccc1Cl gave a GI50 [1] of 4.93 µM, a TGI [1] of over 100 µM and a GI50 [2] of 2.22 µM. It also gave a TGI [2] of 10.5 µM, a GI50 [3] of 3.53 µM and a TGI [3] of 60 µM. It also gave a GI50 [4] of 3.28 µM, a TGI [4] of over 100 µM and a GI50 [5] of 2.84 µM. For the same compound, the TGI [5] was 15.4 µM, the GI50 [6] was 1.95 µM and the TGI [6] was 15.8 µM. For the same compound, the GI50 [7] was 3.14 µM, the TGI [7] was over 100 µM and the GI50 [8] was 1.99 µM. The TGI [8] was 5.06 µM.
Work on C[C@]12CC[C@H]3[C@@H](CC[C@]4(O)C[C@@H](O)CC[C@]34/C=N/O)[C@@]1(O)CC[C@@H]2C1=COC(=O)C1 yielded a TGI [1] of 0.362 µM, a TGI [2] of 0.166 µM and a TGI [3] of 0.657 µM. The TGI [5] was 2.06 µM, the TGI [6] was 0.115 µM and the TGI [7] was 0.0476 µM. It also gave a TGI [8] of 1.06 µM.
COc1ccc(OC)c2c1C(=O)C1CC1(Br)C2=O (stereo unspecified) gave a TGI [9] of over 100 µM, a TGI [1] of over 100 µM and a TGI [2] of over 100 µM. For the same compound, the TGI [3] was over 100 µM, the TGI [4] was over 100 µM and the TGI [5] was over 100 µM. It also gave a TGI [6] of over 100 µM and a TGI [7] of over 100 µM.
O=C1c2ccccc2-c2c1c1ccccc1c(=O)n2CCN1CCOCC1 gave a GI50 [1] of over 100 µM, a TGI [1] of over 100 µM and a GI50 [2] of 55.4 µM. For the same compound, the TGI [2] was over 100 µM, the GI50 [4] was 87.6 µM and the TGI [4] was over 100 µM. It also gave a GI50 [5] of over 100 µM, a TGI [5] of over 100 µM and a GI50 [6] of 64.8 µM. The TGI [6] was over 100 µM, the GI50 [7] was 23.9 µM and the TGI [7] was 90.3 µM. For the same compound, the GI50 [8] was over 100 µM and the TGI [8] was over 100 µM.
O=[N+]([O-])c1cccc([As]=[As]c2cccc([N+](=O)[O-])c2)c1 (stereo unspecified) showed a GI50 [1] of 0.0961 µM, a TGI [1] of 0.222 µM and a GI50 [2] of 0.225 µM. It also gave a TGI [2] of 0.5 µM, a GI50 [3] of 0.136 µM and a TGI [3] of 0.287 µM. For the same compound, the GI50 [4] was 0.046 µM, the TGI [4] was 0.195 µM and the GI50 [5] was 0.136 µM. The TGI [5] was 0.305 µM, the GI50 [6] was 0.178 µM and the TGI [6] was 0.351 µM. It also gave a GI50 [7] of 0.137 µM, a TGI [7] of 0.281 µM and a GI50 [8] of 0.0433 µM. The TGI [8] was 0.173 µM.
COc1ccc2c(c1)C(=O)c1c-2c(N(C)C)nc2ccccc12 showed a GI50 [9] of over 100 µM, a TGI [9] of over 100 µM and a GI50 [1] of over 100 µM. For the same compound, the TGI [1] was over 100 µM, the GI50 [2] was over 100 µM and the TGI [2] was over 100 µM. It also gave a GI50 [3] of over 100 µM, a TGI [3] of over 100 µM and a GI50 [4] of over 100 µM. The TGI [4] was over 100 µM, the GI50 [5] was over 100 µM and the TGI [5] was over 100 µM. It also gave a GI50 [6] of over 100 µM, a TGI [6] of over 100 µM and a GI50 [8] of 72.6 µM. For the same compound, the TGI [8] was over 100 µM.
CCSCCCN(CCCSCC)CCCSCC was tested, and the TGI [9] was over 100 µM, the TGI [1] was over 100 µM and the TGI [2] was over 100 µM. For the same compound, the TGI [3] was over 100 µM, the TGI [4] was over 100 µM and the TGI [5] was over 100 µM. For the same compound, the TGI [6] was over 100 µM and the TGI [8] was 80.4 µM.
Work on NC(=O)c1c(NC(=O)c2ccc3c(c2)OCO3)sc2c1CCC(=O)C2 yielded a GI50 [9] of 0.554 µM, a TGI [9] of 8.28 µM and a GI50 [1] of 2.19 µM. The TGI [1] was over 100 µM, the GI50 [3] was 0.59 µM and the TGI [3] was over 100 µM. It also gave a GI50 [5] of 3 µM, a TGI [5] of over 100 µM and a GI50 [6] of 3.44 µM. For the same compound, the TGI [6] was over 100 µM, the GI50 [8] was 1.65 µM and the TGI [8] was 5.91 µM.
Cc1ccc(CNc2c3ccccc3nc3cc(NC(=O)CCN4CCCC4)ccc23)cc1 showed a GI50 [1] of 0.732 µM, a TGI [1] of 2.04 µM and a GI50 [2] of 0.365 µM. It also gave a TGI [2] of 1.25 µM, a GI50 [3] of 1.45 µM and a TGI [3] of 2.84 µM. For the same compound, the GI50 [4] was 0.413 µM, the TGI [4] was 1.58 µM and the GI50 [5] was 1.66 µM. The TGI [5] was 3.09 µM, the GI50 [7] was 1.23 µM and the TGI [7] was 3.91 µM. For the same compound, the GI50 [8] was 0.516 µM and the TGI [8] was 2.13 µM.
CCCOC(=O)N1CCN(/[N+]([O-])=N/Oc2ccc([N+](=O)[O-])cc2[N+](=O)[O-])CC1 showed a GI50 [9] of 0.727 µM, a TGI [9] of 8.15 µM and a GI50 [1] of 1 µM. It also gave a TGI [1] of 2.95 µM, a GI50 [2] of 2.54 µM and a TGI [2] of 8.82 µM. The GI50 [5] was 6.04 µM, the TGI [5] was 39.4 µM and the GI50 [6] was 3.85 µM. It also gave a TGI [6] of 22.4 µM, a GI50 [7] of 2.16 µM and a TGI [7] of 5.04 µM.
With Cc1[nH]c2ccccc2c1C1Cc2ccccc2N1C(=O)/C=C/C(=O)O (stereo unspecified) the TGI [9] was over 100 µM, the TGI [1] was over 100 µM and the TGI [2] was 61.3 µM. For the same compound, the TGI [3] was over 100 µM, the TGI [4] was over 100 µM and the TGI [6] was over 100 µM. For the same compound, the TGI [7] was over 100 µM.
Compound COC(=O)c1cc(Cl)ccc1NC(=O)c1ccc([N+](=O)[O-])cc1 has a TGI [9] of over 100 µM, a TGI [1] of 38.2 µM and a TGI [2] of over 100 µM. The TGI [3] was 90.7 µM, the TGI [4] was over 100 µM and the TGI [5] was over 100 µM. It also gave a TGI [6] of 58.2 µM and a TGI [7] of 53.1 µM.
For C=C1c2[nH]c3c([N+](=O)[O-])c(OC)ccc3c2CCN1C(C)=O, the TGI [9] was over 100 µM, the TGI [1] was over 100 µM and the TGI [2] was over 100 µM. The TGI [3] was over 100 µM, the TGI [4] was over 100 µM and the TGI [5] was over 100 µM. For the same compound, the TGI [6] was over 100 µM and the TGI [7] was over 100 µM.
O=C(NN1C(=O)CSC12CCCC2)c1[nH]c2ccc(Br)cc2c1-c1ccccc1 showed a GI50 [1] of 22.3 µM, a TGI [1] of over 100 µM and a GI50 [2] of 46.9 µM. It also gave a TGI [2] of over 100 µM, a GI50 [3] of 49.1 µM and a TGI [3] of over 100 µM. For the same compound, the GI50 [4] was 74.6 µM, the TGI [4] was over 100 µM and the GI50 [5] was 44 µM. For the same compound, the TGI [5] was over 100 µM, the GI50 [6] was 35.5 µM and the TGI [6] was over 100 µM. The GI50 [7] was 32.8 µM, the TGI [7] was over 100 µM and the GI50 [8] was 33.8 µM. It also gave a TGI [8] of over 100 µM.
O=C(Nc1ccc(Cl)c(Cl)c1)O/N=C\c1c(Cl)ccc([N+](=O)[O-])c1Cl showed a GI50 [9] of 1.18 µM, a TGI [9] of 3.13 µM and a GI50 [1] of 3.96 µM. For the same compound, the TGI [1] was 13.5 µM, the GI50 [2] was 2.63 µM and the TGI [2] was 7.68 µM. For the same compound, the GI50 [3] was 2.44 µM, the TGI [3] was 8.18 µM and the GI50 [5] was 2.1 µM. The TGI [5] was 4.22 µM, the GI50 [6] was 2.96 µM and the TGI [6] was 10.3 µM. For the same compound, the GI50 [7] was 1.67 µM and the TGI [7] was 3.38 µM.
